The test relates to UM-C17 colon tumor cells. Put plainly: UM-C17 colon tumor xenograft growth. The class given is in vivo, NOD/SCID mice. To be noted: 10 mg/kg i.p. two times per week from day 19, tumors approximately 100 mm^3. The method, then:
In certain embodiments, anti-Jagged 1 antibodies were analyzed for their ability to reduce the growth of UM-C17 colon tumor cells. Dissociated UM-C17 cells (10,000 per animal) were injected subcutaneously into the right flank region of 6-8 week old NOD/SCID mice. Day 19 after tumor cell injection, when tumors were approximately 100 mm^3, animals were injected intraperitoneal (i.p.) with either 10 mg/kg 64M14 anti-Jagged 1 antibodies, 10 mg/kg 64M14 anti-Jagged 1 antibody and 10 mg/kg Avastin (anti-VEGF), Avastin alone, or control antibody anti-DNP (dinitrophenol or anti-hapten) (n=10 per group) two times per week for the duration of the experiment. Both treatment with 64M14 antibodies and Avastin reduced tumor growth by close to 50% compared to controls (FIG. 4).

The source of these data is US8802103B2, “Compositions and methods for diagnosing and treating cancer” (OncoMed Pharmaceuticals, Inc., priority 2007, dated 2014).

For the substance Avastin: anti-VEGF antibody, the “reduction of tumor growth compared to control antibodies” value is given as about 50%.
